Measured values from patent publication US6528528B2 (Warner-Lambert Company, priority 1997, dated 2003).

molecular target: T1, rabbit reticulocyte 15-LO (Oryctolagus cuniculus, UniProt P12530); experiment: Rabbit Reticulocyte 15-LO Assay (h15LO); assay type: biochemical; details: Table 2; 2U rabbit reticulocyte 15-LO, 174 μM linoleic acid, 15 minutes at 4° C.
T1 construct: Fifteen-lipoxygenase was obtained from phenylhydrazine-treated rabbits and purified per the method of Rapoport; from tissue; host or cells: reticulocytes of phenylhydrazine-treated rabbits
T1 sequence (P12530 1-663): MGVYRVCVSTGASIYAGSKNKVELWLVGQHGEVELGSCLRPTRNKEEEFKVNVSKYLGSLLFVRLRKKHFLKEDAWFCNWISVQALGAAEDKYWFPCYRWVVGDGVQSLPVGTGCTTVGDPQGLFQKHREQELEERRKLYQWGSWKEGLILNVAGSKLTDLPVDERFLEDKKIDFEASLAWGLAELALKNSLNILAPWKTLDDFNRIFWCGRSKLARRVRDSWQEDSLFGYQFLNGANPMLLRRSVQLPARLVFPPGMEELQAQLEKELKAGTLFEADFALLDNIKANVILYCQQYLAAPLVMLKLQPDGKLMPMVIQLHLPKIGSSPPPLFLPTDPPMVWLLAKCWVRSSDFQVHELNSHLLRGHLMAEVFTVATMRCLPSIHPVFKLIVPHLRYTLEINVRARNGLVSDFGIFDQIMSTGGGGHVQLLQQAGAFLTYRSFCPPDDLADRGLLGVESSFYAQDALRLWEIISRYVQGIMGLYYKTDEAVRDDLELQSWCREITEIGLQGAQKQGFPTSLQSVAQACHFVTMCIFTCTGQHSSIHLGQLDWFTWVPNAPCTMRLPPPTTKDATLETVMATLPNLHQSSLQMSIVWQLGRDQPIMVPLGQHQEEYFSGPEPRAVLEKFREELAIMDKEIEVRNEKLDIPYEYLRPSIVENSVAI
Protocol: Rabbit Reticulocyte 15-LO Assay (h15LO)
The present 15-LO assay takes advantage of the ability of 15-LO to oxidize the fatty acid linoleic acid to the hydroperoxy fatty acid 13-(S)HPODE, resulting in the formation of a conjugated diene. The 15-LO inhibitors are incubated with 15-LO enzyme in the presence of linoleic acid substrate. The initial reaction is compared to an uninhibited (maximal) reaction to yield % inhibition. […] This prevents artificial nonenzyme lipid peroxidation and product breakdown in the sample. 13-HPODE is quantitated by comparing peak areas of individual samples with those from a standard curve generated using authentic 13-HODE. This assay is performed using 2U of rabbit reticulocyte 15-LO in the presence of 174 μM linoleic acid. The reaction is incubated for 15 minutes at 4° C. The total reaction volume is 100 μL in PBS containing 0.2% Na cholate.
Fifteen-lipoxygenase was obtained from phenylhydrazine-treated rabbits and purified per the method of Rapoport (Rapoport S. M., Schewe T., Wiesner R., et al. The lipoxygenase of reticulocytes. Purification, characterization, and biological dynamics of the lipoxygenase; its identity with the respiratory inhibitors of the reticulocyte. European Journal of Biochemistry, 1979;96:545-561). The following chemicals were purchased and used as received: linoleic acid (NUJCheck Prep), 13-HPODE (Biomol Research Labs), sodium cholate (Sigma), trimethyl phosphite (Fluka Chemicals).

| SMILES | IC50 |
| --- | --- |
| COc1ccc(S(=O)(=O)Nc2cc(NC(=O)c3ccc(Cl)c(Cl)c3)ccc2OC)cc1 [Example 196, 3,4-Dichloro-N-[4-methoxy-3-(4-methoxy-benzenesulfonylamino)-phenyl]-benzamide] | 33 nM |
| COc1ccc(NC(=O)c2ccc(Cl)c(Cl)c2)cc1NS(=O)(=O)c1ccc(C)cc1 [Example 197, 3,4-Dichloro-N-[4-methoxy-3-(toluene-4-sulfonylamino)-phenyl]-benzamide] | 36 nM |
| COc1ccc(C(=O)Nc2ccc(F)c(F)c2)cc1NCc1cccc(O)c1 [Example 210, 3-(3-Hydroxy-benzylamino)-4-methoxy-N-(3,4-difluoro-phenyl)-benzamide] | 24 nM |
| CCN(CC)c1ccc(CNc2cc(C(=O)Nc3ccccc3)ccc2OC)cc1 [Example 211, 3-(4-Diethylamino-benzylamino)-4-methoxy-N-phenyl-benzamide] | 69 nM |
| COc1ccc(C(=O)Nc2ccc(F)c(F)c2)cc1NCc1cccc(F)c1 [Example 212, 3-(3-Fluoro-benzylamino)-4-methoxy-N-(3,4-difluoro-phenyl)-benzamide] | 69 nM |
| COc1ccc(C(=O)Nc2ccccc2)cc1NCc1cccc(O)c1 [Example 213, 3-(3-Hydroxy-benzylamino)-4-methoxy-N-phenyl-benzamide] | 79 nM |
| COc1ccc(C(=O)Nc2ccccc2)cc1NCc1cccc(F)c1 [Example 214, 4-Methoxy-3-(3-fluoro-benzylamino)-N-phenyl-benzamide] | 89 nM |
| COc1ccc(C(=O)Nc2ccccc2)cc1NCc1cccc([N+](=O)[O-])c1 [Example 215, 4-Methoxy-3-(3-nitro-benzylamino)-N-phenyl-benzamide] | 110 nM |
| COc1ccc(CNc2cc(C(=O)Nc3ccccc3)ccc2OC)cc1 [Example 216, 4-Methoxy-3-(4-methoxy-benzylamino)-N-phenyl-benzamide] | 118 nM |
| COc1ccc(C(=O)Nc2ccccc2)cc1NCc1cccc2ccccc12 [Example 217, 4-Methoxy-3-[(naphthalen-1-ylmethyl)-amino]-N-phenyl-benzamide] | 129 nM |
| COc1ccc(C(=O)Nc2ccccc2)cc1NCc1cc(C)cc(C)c1 [Example 218, 4-Methoxy-3-(3,5-dimethyl-benzylamino)-N-phenyl-benzamide] | 161 nM |
| COc1ccc(C(=O)Nc2ccccc2)cc1NCc1cccc(F)c1F [Example 219, 3-(2,3-Difluoro-benzylamino)-4-methoxy-N-phenyl-benzamide] | 166 nM |
| COc1ccc(C(=O)Nc2ccccc2)cc1NCc1ccc(OC(C)=O)cc1 [Example 220, Acetic acid 4-[(2-methoxy-5-phenylcarbamoyl-phenylamino)-methyl]-phenyl Ester] | 509 nM |
| COC(=O)c1ccc(CNc2cc(C(=O)Nc3ccccc3)ccc2OC)cc1 [Example 221, 4-[(2-Methoxy-5-phenylcarbamoyl-phenylamino)-methyl]-benzoic Acid Methyl Ester] | 551 nM |
| COc1ccc(C(=O)Nc2ccccc2)cc1NCc1ccccc1C [Example 223, 4-Methoxy-3-(2-methyl-benzylamino)-N-phenyl-benzamide] | 892 nM |
| COc1ccc(C(=O)Nc2ccccc2)cc1NCc1ccc(F)cc1 [Example 224, 4-Methoxy-3-(4-fluoro-benzylamino)-N-phenyl-benzamide] | 982 nM |

same assay, conditions: Table 2; concentration not given

| SMILES | h15LO, value given as bare % |
| --- | --- |
| COc1ccc(C(=O)Nc2ccc(F)cc2)cc1NS(=O)(=O)c1cccc([N+](=O)[O-])c1 [Example 190, 4-Methoxy-3-(3-nitro-benzenesulfonylamino)-N-(4-fluoro-phenyl)-benzamide] | 97.05% |
| COc1ccc(C(=O)Nc2ccc(F)cc2)cc1NS(=O)(=O)c1ccc([N+](=O)[O-])cc1 [Example 191, 4-Methoxy-3-(4-nitro-benzenesulfonylamino)-N-(4-fluoro-phenyl)-benzamide] | 96.99% |
| COc1ccc(C(=O)Nc2ccccc2)cc1NS(=O)(=O)c1ccc(C#N)cc1 [Example 192, 3-(4-Cyano-benzenesulfonylamino)-4-methoxy-N -phenyl-benzamide] | 95.56% |
| COc1ccc(C(=O)Nc2ccc(F)cc2)cc1NS(=O)(=O)c1ccc(C#N)cc1 [Example 193, 3-(4-Cyano-benzenesulfonylamino)-4-methoxy-N-(4-fluoro-phenyl)-benzamide] | 94.51% |
| COc1ccc(C(=O)Nc2ccccc2)cc1NS(=O)(=O)c1cccc(C#N)c1 [Example 195, 3-(3-Cyano-benzenesulfonylamino)-4-methoxy-N-phenyl-benzamide] | 93.07% |
| COc1ccc(NC(=O)c2ccc(F)c(F)c2)cc1NS(=O)(=O)c1cccc(N)c1 [Example 198, 3,4-Difluoro-N-[4-methoxy-3-(3-amino-benzenesulfonylamino)-phenyl]-benzamide] | 97.77% |
| COc1ccc(NC(=O)c2ccc(F)c(F)c2)cc1NS(=O)(=O)c1ccc(N)cc1 [Example 199, 3,4-Difluoro-N-[4-methoxy-3-(4-amino-benzenesulfonylamino)-phenyl]-benzamide] | 97.68% |
| CCCCCCCCCCCCS(=O)(=O)Nc1cc(NC(=O)c2ccc(F)c(F)c2)ccc1OC [Example 200, 3,4-Difluoro-N-[4-methoxy-3-(1-dodecane-sulfonylamino)-phenyl]-benzamide] | 96.92% |
| COc1ccc(NC(=O)c2ccc(F)c(F)c2)cc1NS(=O)(=O)CCl [Example 201, 3,4-Difluoro-N-[4-methoxy-3-(chloromethyl-sulfonylamino)-phenyl]. benzamide] | 93.97% |
| COc1ccc(NC(=O)c2ccc(F)c(F)c2)cc1NS(=O)(=O)c1ccc([N+](=O)[O-])cc1 [Example 202, 3,4-Difluoro-N-[4-methoxy-3-(4-nitro-benzenesulfonylamino)-phenyl]-benzamide] | 93.85% |
| COc1ccc(NC(=O)c2ccc(F)c(F)c2)cc1NS(=O)(=O)c1cccc([N+](=O)[O-])c1 [Example 203, 3,4-Difluoro-N-[4-methoxy-3-(3-nitro-benzenesulfonylamino)-phenyl]-benzamide] | 92.01% |
| COc1ccc(NC(=O)c2ccc(F)c(F)c2)cc1NS(=O)(=O)c1ccc(C#N)cc1 [Example 204, 3,4-Difluoro-N-[3-(4-cyano-benzenesulfonylamino)-4-methoxy-phenyl]-benzamide] | 89.54% |
| COc1ccc(NC(=O)c2ccc(F)c(F)c2)cc1NS(=O)(=O)c1cccc(C#N)c1 [Example 205, 3,4-Difluoro-N-[3-(3-cyano-benzenesulfonylamino)-4-methoxy-phenyl]-benzamide] | 86.96% |
| O=C(Nc1ccc(F)c(NS(=O)(=O)c2cccs2)c1)c1ccc(F)c(F)c1 [Example 206, 3,4-Difluoro-N-[4-fluoro-3-(thiophene-2-sulfonylamino)-phenyl]-benzamide] | 45.56% |
| COc1ccc(NC(=O)Nc2ccc(Cl)c(Cl)c2)cc1NS(=O)(=O)c1cccs1 [Example 207, Thiophene-2-sulfonic acid {5-[3-(3,4-dichloro-phenyl)-ureido]-2-methoxy-phenyl}-amide] | 41.59% |
| COc1ccc(C(=O)Nc2ccccc2)cc1NCc1ccc(O)c([N+](=O)[O-])c1 [Example 225, 3-(4-Hydroxy-3-nitro-benzylamino)-4-methoxy-N-phenyl-benzamide] | 97.88% |
| CCN(CC)c1ccc(CNc2cc(C(=O)Nc3ccc(F)c(F)c3)ccc2OC)cc1 [Example 226, 3-(4-Diethylamino-benzylamino)-4-methoxy-N-(3,4-difluoro-phenyl)-benzamide] | 96.21% |
